These results are taken from patent US20180203025A1, “HDL THERAPY MARKERS” (Cerenis Therapeutics Holding SA, priority 2014, published 2018).

For data set [1], the system named is J774 macrophages. The data set is described as follows: Radioactive cholesterol efflux from J774 macrophages. It counts as cell-based, mouse. The following applies: Study N; 0.03 to 10 mM; 6 hours. On the procedure:
J774 macrophages obtained from ATCC (No TIB-67) were grown in Dulbecco's modified Eagle's medium (DMEM, Invitrogen) supplemented with 10% FBS (foetal bovine serum, Invitrogen), 100 units/ml penicillin G (Invitrogen), and 100 units/ml streptomycin (Invitrogen) at 37° C. with 5% CO2. Cells were seeded on 24-well plates (Falcon) at 40,000 cells/well and grown for 32 hours in 2 ml DMEM 10% FBS. LDL oxidation: 1 ml LDL is dialyzed against 4 L PBS (twice, 12 hours each) in Slide-A-Lyzer™ Mini Dialysis Units 7000MWCO (Pierce).
[1] After dialysis, proteins-LDL are quantified with Coomassie protein assay (#1856209, ThermoScientific) using albumin (#23209, ThermoScientific) as standards. Absorbance is read with Glomax multi detection System (Promega) at 600 nm. […] After dialysis, proteins-LDL are quantified by same method as. […]
The efflux is induced by adding different acceptors for 6 hours (or different time between 1 to 24 hours) in 250 μl DMEM without FBS. Radioactivity was measured by adding the medium (0.25 ml) to Super Mix (0.75 ml) (1200-439 Perkin-Elmer), mixed in 24 well flexible microplate (1450-402 Perkin-Elmer) and radioactivity was measured with MicroBeta® Trilux (2 minutes counting time). The intracellular [^3H] cholesterol was extracted by 0.2 ml hexane-isopropanol (3:2) (incubation 0.5 hours) and measured by liquid scintillation counting. […]

Data set [2] concerns J774 macrophages. The data set is described as follows: Cytotoxicity in J774 efflux study. The class given is cell-based, mouse. The following applies: Study N; 30 mM; 6 hours. On the procedure: J774 were seeded on 24 well plates (60,000 cells/well) and loaded with ^3H-cholesterol oxidized-LDL in DMEM 2.5% FCS. After a 24 hour equilibration (DMEM), β-cyclodextrin (0.03, 0.1, 0.3, 1, 3, 10 and 30 mM) was added for 6 hours. The percentage of efflux, assayed using the protocol of Section 8.3.6, is determined as: Medium DPM/(Medium DPM+Cell DPM)*100.

Data set [3] relates to SREBP-2 mRNA in mouse macrophages (J774). The data set is described as follows: SREBP-2 gene expression (real-time PCR) in J774 macrophages. It counts as cell-based. To be noted: Study P; 0.03 to 30 mM; 6 hours. On the procedure:
The mRNA regulation of those genes expressing ABCA1, ABCG1 and SR-BI is linked to nuclear proteins as LXR, SREBP1 and SREBP2. […] Gene expression was assayed using the protocols described in Sections 8.3.2 (RNA extraction); 8.3.4 (reverse transcription), and 8.3.5 (qPCR). SREBP-1, SREBP-2 and LXR gene expression levels were determined with Taqman probe (Mm01138344.m1, Mm01306292.m1, Mm00443451.m1 respectively) according to the manufacturer's protocol. The reference gene used is HPRT1 (Taqman probe: Mm00446968.m1).
This study used β-cyclodextrin to examine the effect of β-cyclodextrin on LXR, SREBP1 and SREBP2 mRNA expression in J774 macrophages. J774 were seeded on 6 well plates (300,000 cells/well). β-cyclodextrin (0.03, 0.1, 0.3, 1, 3, 10 and 30 mM) was added for 6 hours on the macrophages and the RNA were extracted with the RiboPure™ kit according to the manufacturer's protocol. Gene expression was assayed using the protocols described in Sections 8.3.2 (RNA extraction); 8.3.4 (reverse transcription), and 8.3.5 (qPCR). SREBP-1, SREBP-2 and LXR gene expression were determined with Taqman probe (Mm01138344.m1, Mm01306292.m1, Mm00443451.m1 respectively) according to the manufacturer's protocol. The reference gene used is HPRT1 (Taqman probe: Mm00446968.m1).
On the technique in general: Quantitative PCR measures a nucleic acid by following its amplification.

The test system of data set [4] is ABCA1 mRNA in HepG2 (human hepatocytes). Description: ABCA1 mRNA in HepG2 hepatocytes. The following applies: Study K, 0.25, 25 and 250 μg/mL, 6 hours. It counts as cell-based. On the procedure:
HepG2 (human hepatocytes) and Hepa1-6 (mouse hepatocytes) were seeded on 6 well plates (300,000 cells/well) in DMEM 10% FCS. […] Gene expression was assayed using the protocols described in Sections 8.3.2 (RNA extraction); 8.3.4 (reverse transcription), and 8.3.5 (qPCR). ABCA1 (Taqman probe Hs01059118.m1 and Mm00442646.m1 for respectively HepG2 and Hepa1-6) and SR-BI (Taqman probe Hs00969821.m1 and Mm00450234.m1 for respectively HepG2 and Hepa1-6) expression was determined according to the manufacturer's protocol. The reference gene used is HPRT1 (Taqman probe: Mm00446968.m1) for Hepa1-6 and GAPDH (Taqman probe: Hs03929097.g1) for HepG2 cells.

The next data set can be described thus: CHI SQUARE tolerability. It counts as in vivo, human. The following applies: 3, 6, and 12 mg/kg. The text has this:
504 subjects presenting with acute chest pain or other angina equivalent symptoms, indicative of a diagnosis of ST segment elevation myocardial infarction, non-ST elevation myocardial infarction or unstable angina were enrolled. To be eligible, subjects must have angiographic evidence of coronary artery disease as defined by at least one lesion in any of the three major native coronary arteries that has >20% reduction in lumen diameter by angiographic visual estimation or prior history of percutaneous coronary intervention (“PCI”). The target vessel for PCI was not the target coronary artery for research IVUS, and any vessel with previous PCI could not be used as the target coronary artery.

Data set [5] relates to ABCA1 in mouse ligatured carotids. Description: Western blot of ABCA1 expression in ligatured carotids. The class given is in vivo. On the procedure: Ligatured carotids previously extracted with chloroform:methanol were solubilized in NAOH 0.1N (100 μL/carotid). The solution was briefly sonicated and centrifuged at 15,000×g for 10 minutes. The protein concentration was determined with Bradford assay and 40 μg of sample were loaded on SDS-PAGE. The ABCA1 expression (ab7360—dilution 1/1000) was quantified using imageJ® software.

As for `OC[C@H]1O[C@@H]2O[C@H]3[C@H](O)[C@@H](O)[C@@H](O[C@H]4[C@H](O)[C@@H](O)[C@@H](O[C@H]5[C@H](O)[C@@H](O)[C@@H](O[C@H]6[C@H](O)[C@@H](O)[C@@H](O[C@H]7[C@H](O)[C@@H](O)[C@@H](O[C@H]8[C@H](O)[C@@H](O)[C@@H](O[C@H]1[C@H](O)[C@H]2O)O[C@@H]8CO)O[C@@H]7CO)O[C@@H]6CO)O[C@@H]5CO)O[C@@H]4CO)O[C@@H]3CO` [β-cyclodextrin, reference compound], the cholesterol efflux result in the data set with J774 macrophages [1] is reported as “dose-dependent increase”. Further, the cytotoxicity entry with J774 macrophages [2] is “cytotoxic, killing half of the cell population”. Further, the “SREBP-2 mRNA” value in data set [3] is “increased for the lowest dose of β-cyclodextrin and reached a plateau”.
As for “CER-001: engineered recombinant human apolipoprotein A-I HDL with sphingomyelin and DPPG; protein-to-phospholipid ratio 1:2.7, 97% Sph and 3% DPPG”, in data set [4], the “ABCA1 mRNA level” value is “No significant decrease”. For the same compound, in “CHI SQUARE tolerability”, the tolerability entry is “well-tolerated overall” and the “toxicities in laboratory parameters” value is “no apparent dose-related toxicities in laboratory parameters”. Also, the “carotid ABCA1 expression” value in data set [5] (5 mg/kg) is listed as “did not affect the ABCA1 expression”. In addition, the “carotid ABCA1 content” value in data set [5] (50 mg/kg) is listed as “decrease”.
